This is an account of results in US20170157212A1, “CDK MODULATORS AND METHODS FOR THE TREATMENT OF CANCER” (Salk Institute for Biological Studies, priority 2015, published 2017).

The target of assay [1] is T1, mTORC1/Raptor kinase complex (Homo sapiens, UniProt P42345).
T1 construct: made in house
The assay is described as follows: In vitro kinase assay: mTORC1 phosphorylation of recombinant 4E-BP1 (T37/46). The settings on record: same reactions with CDK12 and mTORC1/Raptor. The format is biochemical. An excerpt: To enable priming of 4E-BP1 by mTORC1, these reactions contained both affinity-purified CDK12 and the mTORC1/Raptor kinase complexes. […] Consistent with a gain-of-function for CDK12 kinase activity in CRIF1 knockdown cells, enhanced binding of eIF4G to target mRNAs was observed (FIG. 6H, upper panel) that were identified previously by RIP-seq, with no effects on total mRNA levels (FIG. 6H, bottom panel).

In the next assay the target is T2, CDK2 (Homo sapiens, UniProt P24941).
T2 construct: endogenous in cells
Briefly: Co-immunoprecipitation of CRIF1 with CDK2. It counts as binding. An excerpt:
(§1) FIGS. 5A-5I. The Mitochondrial OX-PHOS Regulator, CRIF1, is a Novel Subunit of the Human CDK12 Kinase Complex. (A) Identification of CRIF1 as a near-stoichiometric subunit of the native CDK12 kinase complex. MudPIT analysis of CDK12 complexes from HEK293 cells that stably express HA-tagged full-length human CDK12. The HA-CDK12 complex was affinity-purified using anti-HA antibody and visualized by SDS-PAGE and silver-stain. (B) List of the identified proteins in the HA-CDK12 complex from (A). (C) Endogenous CRIF1 co-immunoprecipitates with native CDK12 in U2OS cell extracts. Shown is an immunoblot analysis of CRIF1, CCNK, and the chaperone proteins CDC37 and HSP90 in an anti-CDK12 immunoprecipitate. (D) CRIF1 is a specific subunit of the CDK12 complex. Native CRIF1 was immunoprecipitated from U2OS cells using an anti-CRIF1 antibody and analyzed by co-immunoprecipitation for association with various CDKs, as indicated. […] FLAG-CRIF1 proteins containing different C-terminal truncations were co-expressed with HA-CDK12 (aa 985-1490) and analyzed for binding by co-immunoprecipitation and immunoblot. […] Cell viability was analyzed after 72 hr. […] Expression of the mitochondrial MTCO-1 (COX1) protein was assessed using two different antisera. […] Each fraction (T; total, C:cytosolic, M:membrane/organelle, and N:nuclear) was analyzed by immunoblot using the indicated antibodies. […]

In another assay the target is T3, CDK7 (Homo sapiens, UniProt P50613).
T3 construct: endogenous in cells
The assay is described as follows: Co-immunoprecipitation of CRIF1 with CDK7. It counts as binding.
Excerpt: as §1

Entries after “also recorded” stand apart in the source; their conditions may differ.

T3 sequence (P50613 whole entry): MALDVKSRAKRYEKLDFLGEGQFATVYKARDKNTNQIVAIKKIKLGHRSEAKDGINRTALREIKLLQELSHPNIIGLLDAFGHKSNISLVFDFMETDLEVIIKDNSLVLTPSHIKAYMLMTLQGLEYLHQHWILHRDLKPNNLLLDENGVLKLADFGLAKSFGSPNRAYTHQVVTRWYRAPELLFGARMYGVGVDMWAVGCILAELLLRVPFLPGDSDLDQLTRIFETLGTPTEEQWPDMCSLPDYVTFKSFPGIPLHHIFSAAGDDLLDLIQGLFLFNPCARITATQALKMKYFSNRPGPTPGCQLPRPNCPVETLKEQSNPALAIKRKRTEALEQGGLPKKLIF

As to “Growth Arrest and DNA Damage-Inducible Proteins-Interacting Protein 1 [CRIF1]”, the “phosphorylation of the T37/46 sites of 4E-BP1 by mTORC1” value in assay [1] was “without affecting”. Moreover, the “presence in / binding to CDK2 complexes” value on CDK2 is recorded as “not present; also recorded: nor was binding to Cdk2 detected”. On CDK7, the “presence in / binding to CDK7 complexes” value was “not present; also recorded: does not bind”.
